Data: patent US12133900B2, “Synthesis and composition of amino acid linking groups conjugated to compounds used for the targeted imaging of tumors” (Purdue Research Foundation, priority 2013, dated 2024)

How the values were obtained:
[1] = test system: FR-positive SKOV3 tumor xenografts; assay: Imaging and biodistribution, SKOV3 ovarian xenograft; format: in vivo, mice; settings: 2 nmol, 2 h
Method: Seven-week-old female nu/nu mice were inoculated subcutaneously with KB (1.0×10^6/mouse in RPM11640 medium), IGROV (5.0×10^6/mouse in 50% high concentrated matrigel+RPM11640 medium), SKOV3 (5.0×10^6/mouse in RPM11640 medium), OVCAR3 (5.0×10^6/mouse in RPM11640 medium), MDA-MB231 (1.0×10^6/mouse in RPM11640 medium), M109 (1.0×10^6/mouse in RPM11640 medium) or A549 cells (2.0×10^6/mouse in RPM11640 medium) on the shoulder. Growth of the tumors was measured in perpendicular directions every 2 days using a caliper (body weights were monitored on the same schedule), and the volumes of the tumors were calculated as 0.5×L×W^2 (L=longest axis and W=axis perpendicular to L in millimeters). Once tumors reached approximately 300-400 mm3 in volume, animals (3-5 mice/group) were intravenously injected with the compound of interest in PBS (for dose escalation in KB tumor model: 0.3-90 nmol, for time dependent in KB tumor model: 2 or 10 nmol, and for general whole body imaging and biodistribution for all tumor models: 2 nmol, in 100 μL in PBS per mouse). For whole body imaging and biodistribution studies, animals were euthanized 2 hours after administration of the compound of interest by CO2 asphyxiation. For time dependent studies, animals were imaged under anesthesia using isoflurane. Whole body imaging (intact tumor) experiments was then performed using a Caliper IVIS Lumina II Imaging Station with Living Image 4.0 software (PerkinElmer Inc, MA).
Following whole body imaging, animals were dissected and selected tissues (heart, lung, liver, spleen, kidneys, stomach, small intestine, large intestine, muscle, skin, and tumor) were analyzed for fluorescence activity using IVIS imager using same settings as in whole body imaging.

FR-alpha and beta = settings: cited from earlier work
[2] = Toxicity in healthy nude mice; format: in vivo
Method: Seven-week-old healthy female nude mice (5 mice/group) were administered with 1 μmol of freshly prepared OTL-0038 or OTL-0039 dissolved in 100 μL of phosphate buffered saline via tail vein injection on day zero. Body weights and clinical observations were monitored prior to dosing and daily thereafter from day zero to 7. Any animals with a body weight loss of 20% or more over two consecutive days would be euthanized, but this was not necessary. The animals were euthanized by CO2 asphyxiation on day 7 and selected tissues (brain, heart, lung, liver, spleen, kidney, stomach, small intestine, large intestine, muscle, skin) were collected into vials containing 4% formalin. Formalin fixed tissues were sectioned into 10 μm thick sections and mounted onto Superfrost Plus™ slides (Fisher Scientific, Pittsburgh Pa.). After staining the slides with H&E, immunohistochemistry (IHC) analysis of the tissues was conducted to determine to the toxicity of OTL-0038 and OTL-0039.

[3] = molecular target: T1, folate receptor (FR-α) on KB cells (Homo sapiens, UniProt P15328); assay: Competition binding with [3H]-folic acid on KB cells
T1 construct: KB cells that overexpress FR-α were seeded in 24-well (100,000 cells/well) Falcon plates; host or cells: KB cells (human; described as a HeLa derivative)
T1 sequence (P15328 25-234): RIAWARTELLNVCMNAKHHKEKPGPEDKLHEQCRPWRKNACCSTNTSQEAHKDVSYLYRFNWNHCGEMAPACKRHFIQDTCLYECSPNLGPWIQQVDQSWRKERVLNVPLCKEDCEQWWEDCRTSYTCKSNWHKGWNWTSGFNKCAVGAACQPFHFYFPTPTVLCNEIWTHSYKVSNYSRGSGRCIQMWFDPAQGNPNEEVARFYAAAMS
Method: KB cells that overexpress FR-α were seeded in 24-well (100,000 cells/well) Falcon plates and allowed to form monolayers over a period of 24 h. […] After incubating for 1 hour at 37° C., cells were rinsed with PBS (2×0.5 mL) and 1M trichloroacetic acid (1×0.5 mL) to remove any unbound radioactive materials. After adding 1% sodium dodecylsulfate in PBS (0.5 mL), cells were transferred into individual scintillation vials containing Ecolume scintillation cocktail (3.0 mL) and counted in a liquid scintillation analyzer. The relative binding affinities were calculated using a plot of cell bound radioactivity versus the concentration of the test article using Graph Pad Prism 4.
(§1) KB cells that overexpress FR-α were seeded in 24-well (100,000 cells/well) Falcon plates (BD Biosciences, CA) and allowed to form monolayers over a period of 12 h. […] After incubating for 1 h at 37° C., cells were rinsed with PBS (3×0.5 mL, Gibco, NY) to remove any unbound radioactive materials. After adding 0.25 M sodium hydroxide (0.5 mL) and incubating for 12 h at 4° C., cells were transferred into individual scintillation vials containing Ecolite scintillation cocktail (3.0 mL, MP Biomedicals, OH) and counted in a liquid scintillation analyzer (Packard). The relative binding affinities were calculated using a plot of % cell bound radioactivity versus the log concentration of the test article using GraphPad Prism 4.
as §1, with “12 hours.” for “12 h.”, “1 hour” for “1 h”, “12 hours” for “12 h”

## CC1(C)C(/C=C/C2=C(Oc3ccc(C[C@H](NC(=O)c4ccc(NCc5cnc6nc(N)[nH]c(=O)c6n5)cc4)C(=O)[O-])cc3)C(=C/C=C3\N(CCCCS(=O)(=O)[O-])c4ccc(S(=O)(=O)[O-])cc4C3(C)C)/CCC2)=[N+](CCCCS(=O)(=O)[O-])c2ccc(S(=O)(=O)[O-])cc21.[H+].[H+].[H+].[H+] [OTL-0038, Pte-Tyr-S0456]
[1]
  ex-vivo tissue biodistribution: highest fluorescence intensities were observed in FR-positive tumors and kidneys
  tumor-to-normal tissue ratios: excellent tumor-to-normal tissue ratios
  whole body imaging: accumulation: accumulated mainly in the FR-positive SKOV3 tumor xenografts
FR-alpha and beta
  affinity for FR-alpha versus beta: binds to FR-alpha and beta with same affinity
[2]; 1 μmol (1000× clinical dose)
  toxicity (conclusion): not toxic to animals
[2]; 1 μmol tail vein
  skin colour immediately after the injection: became green
[2]; 1 μmol tail vein, day 0 to 7
  activity and behaviour: behaved normally throughout the study
  body weights over the course of the study: remained stable
[2]; 1 μmol tail vein, day 7
  lesions in tissues (IHC data): no lesions identified in any tissues
[3]; KB cells
  affinity and specificity for folate receptor (words): compares well with the binding affinity of folic acid
  competition with [3H]-folic acid: competed well with [3H]-folic acid
[3]; KB cells, listed as OTL38
  affinity and specificity for folate receptor (words): binds to FR with high affinity and specificity
[3]; KB cells, listed as Pte-Tyr-S0456
  affinity and specificity for folate receptor (words): binds folate receptor with high affinity and specificity
[3]; relative affinity of folic acid=1, <1 weaker
  Relative binding affinities: 0.71
